Assay results: patent EP0687469A2, “Anti-arrhythmic 3,7-diazabicyclo (3,3,1)nonane compounds” (Kali-Chemie Pharma GmbH, priority 1994, dated 1995)

Assays:
[1] = system: verz.gleichr. Auswärtsstrom Ik; assay: voltage clamp measurement of ion currents in isolated heart muscle cells (Ik); format: cell-based, Meerschweinchen; details: read-out: Blockade von Ionenströmen in % des Vorwerts verz.gleichr. Auswärtsstrom Ik
Source text: (§1) Die Experimente wurden mit der Spannungsklemmmethode an isolierten Herzmuskelzellen von Meerschweinchen und Ratten durchgeführt. Hierbei wurden die Messungen des Ito an Zellen von Rattenherzen und die Messungen des Ik an Zellen von Meerschweinchenherzen durchgeführt. Die Herzen wurden mit proteolytischen Enzymen (Collagenase) perfundiert, um das Bindegewebe zu lockern. Anschließend wurde das Gewebe mechanisch zerkleinert und sodann erfolgte eine weitere Vereinzelung der Zellen in einer Nährlösung im Schüttelbad. Durch anschließendes Zentrifugieren wurde eine Suspension von Herzmuskelzellen erhalten. Bei der angewendeten Spannungsklemmethode zur Messung der Membranströme wird mittels einer Mikroelektrode (in Form einer mit Elektrolytlösung gefüllten Glaskapillare) das Zellinnere mit einem Verstärker verbunden, der die Membranspannung vorgeben kann. Fließt nun ein Ionenstrom durch die Membran (= Öffnung des Ionenkanalproteins) und verschiebt die Membranspannung, kompensiert der Verstärker diese Verschiebung durch einen Gegenstrom, d. h. die Spannung ist sozusagen festgeklemmt. Der gemessene Gegenstrom entspricht in seinem zeitlichen Verlauf dem physiologischen Ionenstrom mit umgekehrtem Vorzeichen. Die Aktivierung der verschiedenen Ionenströme in der Zellmembran hängt charakteristisch von Spannung und Zeit ab. […]

[2] = system: transienter Auswärtsstrom Ito; assay: voltage clamp measurement of ion currents in isolated heart muscle cells (Ito); format: cell-based, Ratten; details: read-out: Blockade von Ionenströmen in % des Vorwerts transienter Auswärtsstrom Ito
Source text: as §1

SMILES: CC(C)CN1CC2CN(C(C)C)CC(C1)C21CCCCC1 [Bertosamil, N-Isobutyl-N'-isopropyl-9,9-pentamethylen-3,7-diazabicyclo[3,3,1]nonan]
- inhibition at 1 µM [1]: 13%
- inhibition at 1 µM [2]: 38%
